One data set can be described thus: animal model of anxiety. As to conditions: in vivo.
Data set [1] deals with T1, mGluR3 (Homo sapiens, UniProt Q14832). Nature of the data set: [3H] LY341495 binding at mGluR3. Details: expressed in transfected cells. The settings on record: Example 1: average result from several tests, read-out: Ki, reversal of [3H] LY341495 binding at mGluR3. An excerpt:
(D. D. Schoepp, et al., Neuropharmacol., 1996, 35, 1661-1672 and 1997, 36, 1-11).

Data set [2] has as its target T1, mGluR3. Nature of the data set: decrease of forskolin-stimulated cAMP in cells expressing mGluR3.

The Ki is the dissociation constant of the complex between target and ligand, obtained from inhibition or displacement. By EC50 is commonly meant the concentration needed to bring the measured effect to its halfway point. Broadly, the melting point is the temperature, or range, at which the solid turns liquid.

T1 sequence (Q14832 23-879): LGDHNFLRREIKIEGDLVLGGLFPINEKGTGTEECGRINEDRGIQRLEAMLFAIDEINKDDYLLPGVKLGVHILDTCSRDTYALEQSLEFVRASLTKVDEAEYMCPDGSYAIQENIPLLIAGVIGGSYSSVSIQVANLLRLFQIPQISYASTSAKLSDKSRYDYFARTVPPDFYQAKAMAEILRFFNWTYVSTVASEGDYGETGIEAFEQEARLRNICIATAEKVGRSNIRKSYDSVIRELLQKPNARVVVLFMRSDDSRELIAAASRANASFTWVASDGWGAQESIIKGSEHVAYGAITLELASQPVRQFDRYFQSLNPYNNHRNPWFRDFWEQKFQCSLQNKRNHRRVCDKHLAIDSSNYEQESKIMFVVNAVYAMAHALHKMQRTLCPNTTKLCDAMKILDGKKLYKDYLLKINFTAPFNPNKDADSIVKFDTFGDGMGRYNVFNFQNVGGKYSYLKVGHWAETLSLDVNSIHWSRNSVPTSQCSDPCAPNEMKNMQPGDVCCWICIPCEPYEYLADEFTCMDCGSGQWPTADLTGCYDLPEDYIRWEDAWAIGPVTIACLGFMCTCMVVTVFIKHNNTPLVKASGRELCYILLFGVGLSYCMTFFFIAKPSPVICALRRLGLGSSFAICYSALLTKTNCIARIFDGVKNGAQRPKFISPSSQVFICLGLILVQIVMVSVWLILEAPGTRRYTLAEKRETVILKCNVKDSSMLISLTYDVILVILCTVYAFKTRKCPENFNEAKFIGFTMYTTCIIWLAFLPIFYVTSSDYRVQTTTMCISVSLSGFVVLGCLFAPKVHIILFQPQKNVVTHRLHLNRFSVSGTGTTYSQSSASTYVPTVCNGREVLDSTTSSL

On to `N[C@H](C(=O)O)[C@H]1[C@@H](CO)[C@@H]1C(=O)O` (racemic) [Example 1, (2SR,1′SR,2′RS,3′RS)-2-(3′-hydroxymethyl-2′-carboxycyclopropyl)glycine], for which the “potency in an animal model of anxiety” value in the data set “animal model of anxiety” is “highly potent”. Also, the Ki at mGluR3 [1] stood at 7.9 nM. This molecule also displayed an EC50 at mGluR3 [2] of 11.5 nM.

Molecule `N[C@H](C(=O)O)[C@H]1[C@@H](CS)[C@@H]1C(=O)O` (racemic) [Example 3, (2SR,1′RS,2′RS,3′RS)-2-[3′-mercaptomethyl-2′-carboxycyclopropyl]glycine] had a melting point of 200 to 202 °C.

In the case of `N[C@H](C(=O)O)[C@H]1[C@@H](CSc2ccccc2)[C@@H]1C(=O)O` (racemic) [Example 8, (2SR,1′RS,2′RS,3′RS)-2-[3′-(phenylthiomethyl)-2′-carboxycyclopropyl]glycine], the melting point turned out to be 201 °C.

Regarding `N[C@H](C(=O)O)[C@H]1[C@@H](CO)[C@@H]1C(=O)O` (single isomer, unassigned) [Example 22], the Ki at mGluR3 [1] turned out to be 5.1 nM.

(Values after patent publication US6498180B1, “Excitatory amino acid receptor modulators” (Eli Lilly and Company, priority 1999, dated 2002).)
